Results: ChEMBL document CHEMBL2073903, “The expression of P-glycoprotein does influence the distribution of novel fluorescent compounds in solid tumour models” (Br J Cancer, 2003)

Molecular target: ATP-dependent translocase ABCB1 (Homo sapiens, UniProt P08183)
Experiment: TP_TRANSPORTER: ATPase assay in reconstituted P-gp
Assay type: functional

Sequence of ATP-dependent translocase ABCB1 (P08183 whole entry): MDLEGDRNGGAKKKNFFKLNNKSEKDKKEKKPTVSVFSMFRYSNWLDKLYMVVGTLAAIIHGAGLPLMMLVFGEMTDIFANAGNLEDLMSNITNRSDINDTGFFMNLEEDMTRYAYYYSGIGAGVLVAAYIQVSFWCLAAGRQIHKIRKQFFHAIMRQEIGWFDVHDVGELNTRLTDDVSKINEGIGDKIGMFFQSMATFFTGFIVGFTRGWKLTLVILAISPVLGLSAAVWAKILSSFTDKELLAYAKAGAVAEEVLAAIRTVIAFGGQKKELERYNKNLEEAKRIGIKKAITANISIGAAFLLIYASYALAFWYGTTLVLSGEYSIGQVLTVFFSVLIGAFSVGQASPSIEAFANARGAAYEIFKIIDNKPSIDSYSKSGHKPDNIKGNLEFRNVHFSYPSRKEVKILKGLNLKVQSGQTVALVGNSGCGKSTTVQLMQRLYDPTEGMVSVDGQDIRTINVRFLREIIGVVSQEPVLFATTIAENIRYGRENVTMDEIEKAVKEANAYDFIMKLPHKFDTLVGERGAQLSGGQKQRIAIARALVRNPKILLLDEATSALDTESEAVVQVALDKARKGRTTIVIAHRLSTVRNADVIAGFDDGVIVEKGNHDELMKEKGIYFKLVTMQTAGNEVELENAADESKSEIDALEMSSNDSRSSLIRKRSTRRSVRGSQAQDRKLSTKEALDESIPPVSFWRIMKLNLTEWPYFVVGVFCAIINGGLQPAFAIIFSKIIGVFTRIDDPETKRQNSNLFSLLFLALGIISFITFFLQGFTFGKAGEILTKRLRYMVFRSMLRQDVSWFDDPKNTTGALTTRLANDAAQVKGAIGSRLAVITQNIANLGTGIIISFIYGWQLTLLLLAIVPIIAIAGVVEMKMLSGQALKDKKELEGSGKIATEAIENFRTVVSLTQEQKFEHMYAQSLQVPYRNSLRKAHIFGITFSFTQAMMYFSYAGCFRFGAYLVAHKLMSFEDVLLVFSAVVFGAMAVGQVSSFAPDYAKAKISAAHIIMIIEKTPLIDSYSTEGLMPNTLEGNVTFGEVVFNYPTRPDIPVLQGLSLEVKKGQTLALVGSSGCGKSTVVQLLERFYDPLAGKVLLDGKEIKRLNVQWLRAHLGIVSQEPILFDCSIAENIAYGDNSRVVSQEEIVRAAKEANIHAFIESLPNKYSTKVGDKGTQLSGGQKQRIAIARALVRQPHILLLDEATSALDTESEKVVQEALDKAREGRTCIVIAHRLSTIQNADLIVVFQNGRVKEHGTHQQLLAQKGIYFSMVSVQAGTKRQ

Activity: substrate [+]
SMILES: CC(=O)O[C@H]1C(=O)[C@@]2(C)C([C@H](OC(=O)c3ccccc3)[C@]3(O)C[C@H](OC(=O)[C@H](O)[C@@H](NC(=O)CCC4=[N+]5C(=Cc6c(C)cc(C)n6[B-]5(F)F)C=C4)c4ccccc4)C(C)=C1C3(C)C)[C@]1(OC(C)=O)CO[C@@H]1C[C@@H]2O (stereo partly specified)
